Measured values published in patent US7265130B2, “NPY Y5 antagonist” (Shionogi & Co., Ltd., priority 1999, dated 2007).

Key:
human NPY Y5 receptor [1] = biological target: T1, human NPY Y5 receptor (Homo sapiens, UniProt Q15761); assay: Affinity for NPY Y5 receptor ([125I] peptide YY binding, CHO cell membranes); details: inhibition of specific [125I] peptide YY binding, membranes of CHO cells expressing NPY Y5 receptor
T1 construct: expressed in transfected cells
T1 sequence (Q15761 1-445): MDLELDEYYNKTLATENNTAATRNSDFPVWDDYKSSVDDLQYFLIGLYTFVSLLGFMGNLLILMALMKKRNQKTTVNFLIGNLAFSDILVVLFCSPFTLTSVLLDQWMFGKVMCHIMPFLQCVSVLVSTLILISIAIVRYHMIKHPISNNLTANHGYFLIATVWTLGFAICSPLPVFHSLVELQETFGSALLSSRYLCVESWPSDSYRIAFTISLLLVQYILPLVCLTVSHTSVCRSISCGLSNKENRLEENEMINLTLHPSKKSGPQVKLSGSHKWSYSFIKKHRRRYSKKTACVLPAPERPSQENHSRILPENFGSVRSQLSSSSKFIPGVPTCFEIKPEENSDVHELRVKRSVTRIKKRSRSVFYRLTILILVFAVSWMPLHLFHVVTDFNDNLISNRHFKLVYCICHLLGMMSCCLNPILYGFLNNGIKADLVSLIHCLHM
Procedure, shortened: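 Membranes from CHO cells stably expressing human NPY Y5 receptor incubated with test compound and [125I] peptide YY (60 pM final) in HEPES-Hanks buffer with 0.1% BSA, pH 7.4, 25° C for 2 hours. Filter-bound radioactivity counted; non-specific binding with 200 nM peptide YY; IC50 against specific binding calculated.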

human NPY Y5 receptor [2] = biological target: T1, human NPY Y5 receptor; assay: cAMP production inhibitory activity in CHO cells; type: cell-based; details: against 50 nM NPY inhibition of forskolin stimulated cAMP, CHO cells expressing human NPY Y5 receptor
Procedure, shortened: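 CHO cells expressing human NPY Y5 receptor preincubated 20 min at 37 °C with 2.5 mM IBMX, then with compound for 5 min. Stimulated with 50 nM NPY plus 10 μM forskolin for 30 min. Reaction stopped with 1N HCl; supernatant cAMP measured by EIA.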

Row | Compound | IC50 (human NPY Y5 receptor [1]) [nM] | IC50 (human NPY Y5 receptor [2]) [nM]
1 | CC(C)(C)S(=O)(=O)NC1CCC(C(=O)Nc2ccc(F)cc2F)CC1 (stereo not drawn) [Ia-135] | 8.2 | 49
2 | CC(C)(C)S(=O)(=O)NC1CCC(C(=O)Nc2cc(F)cc(F)c2)CC1 (stereo not drawn) [Ia-136] | 1.6 | 13
3 | CC(C)(C)S(=O)(=O)NC1CCC(C(=O)Nc2ccc(F)c(F)c2)CC1 (stereo not drawn) [Ia-138] | 2.2 | 28
4 | CC(C)S(=O)(=O)NC1CCC(C(=O)Nc2ccc3c(c2)CCC3)CC1 (stereo not drawn) [Ia-141] | 1 | 5.7
5 | CC(C)(C)S(=O)(=O)NC1CCC(C(=O)Nc2ccc(F)c(C(F)(F)F)c2)CC1 (stereo not drawn) [Ia-160] | 0.76 | 140
6 | Cc1ccc(NC(=O)C2CCC(NS(=O)(=O)C(C)(C)C)CC2)cc1F (stereo not drawn) [Ia-161] | 1.9 | 18
7 | CC(C)S(=O)(=O)Nc1ccc(C(=O)Nc2ccc3c(c2)CCC3)cc1 [Ia-163] | 7 | 400
8 | CC(C)(C)S(=O)(=O)NC1CCC(C(=O)Nc2cccc(S(=O)(=O)NC3CCCCC3)c2)CC1 (stereo not drawn) [Ia-168] | 0.95 | 13
9 | CC(C)(C)S(=O)(=O)NC1CCC(C(=O)Nc2ccc(S(=O)(=O)NC3CCCCC3)cc2)CC1 (stereo not drawn) [Ia-169] | 1.9 | 88
10 | CC(C)(C)S(=O)(=O)NC1CCC(C(=O)Nc2ccc(N3CCCCC3=O)cc2)CC1 (stereo not drawn) [Ia-173] | 6.9 | 140
11 | CC(C)(C)S(=O)(=O)NC1CCC(C(=O)Nc2ccc(-c3ccno3)cc2)CC1 (stereo not drawn) [Ia-179] | 0.89 | 19
12 | CC(C)NS(=O)(=O)c1ccc(NC(=O)C2CCC(NS(=O)(=O)C(C)(C)C)CC2)cc1 (stereo not drawn) [Ia-180] | 1.9 | 11
13 | CC(C)NS(=O)(=O)c1cccc(NC(=O)C2CCC(NS(=O)(=O)C(C)(C)C)CC2)c1 (stereo not drawn) [Ia-181] | 7.7 | 25
14 | CC(C)(C)S(=O)(=O)NC1CCC(C(=O)Nc2ccc(N3CCCC3=O)cc2)CC1 (stereo not drawn) [Ia-183] | 1.9 | 7.8
15 | CC(C)(C)S(=O)(=O)NC1CCC(C(=O)Nc2ccc(S(=O)(=O)N3CCCCC3)cc2)CC1 (stereo not drawn) [Ia-185] | 0.94 | 4.4
16 | CC(C)(C)S(=O)(=O)NC1CCC(C(=O)Nc2cccc(S(=O)(=O)N3CCCCC3)c2)CC1 (stereo not drawn) [Ia-186] | 0.93 | 12
17 | CC(C)(C)NC(=O)c1ccc(NC(=O)C2CCC(NS(=O)(=O)C(C)(C)C)CC2)cc1 (stereo not drawn) [Ia-187] | 1.9 | 60
18 | CCC(C)NC(=O)c1ccc(NC(=O)C2CCC(NS(=O)(=O)C(C)(C)C)CC2)cc1 (stereo not drawn) [Ia-188] | 0.75 | 28

Row | Compound | IC50 (human NPY Y5 receptor [1]) [nM] | IC50 (human NPY Y5 receptor [2]) [nM]
19 | CC(C)(C)S(=O)(=O)NC1CCC(C(=O)Nc2cccc(NC(=O)C3CCCCC3)c2)CC1 (stereo not drawn) [Ia-189] | 3.5 | 95
20 | CC(C)NC(=O)c1cccc(NC(=O)C2CCC(NS(=O)(=O)C(C)C)CC2)c1 (stereo not drawn) [Ia-192] | 5.9 | 200
21 | CC(C)NC(=O)c1ccc(NC(=O)C2CCC(NS(=O)(=O)C(C)C)CC2)cc1 (stereo not drawn) [Ia-193] | 1.4 | 43
22 | CC(C)(C)S(=O)(=O)NC1CCC(C(=O)Nc2ccc(-c3cnco3)cc2)CC1 (stereo not drawn) [Ia-195] | 1.4 | 31
23 | Cc1cc(C(=O)NC(C)C)ccc1NC(=O)C1CCC(NS(=O)(=O)C(C)(C)C)CC1 (stereo not drawn) [Ia-201] | 3.1 | 74
24 | CC(C)S(=O)(=O)NC1CCC(C(=O)Nc2ccc(-c3ncco3)cc2)CC1 (stereo not drawn) [Ia-204] | 1 | 6.3
25 | CC(C)(C)S(=O)(=O)NC1CCC(C(=O)Nc2ccc(OC3CCOC3)cc2)CC1 (stereo not drawn) [Ia-205] | 2.4 | 99
26 | CC(C)(C)S(=O)(=O)NC1CCC(C(=O)Nc2ccc(OCC3CCCCO3)cc2)CC1 (stereo not drawn) [Ia-206] | 1.9 | 460
27 | CC(C)(C)S(=O)(=O)NC1CCC(C(=O)Nc2ccc(N3CCCS3(=O)=O)cc2)CC1 (stereo not drawn) [Ia-208] | 1.2 | 9.7
28 | CC(C)(C)S(=O)(=O)Nc1ccc(C(=O)Nc2ccc(-c3ccco3)cc2)cc1 [Ia-210] | 2.8 | 99
29 | CC(C)(C)S(=O)(=O)Nc1ccc(C(=O)Nc2ccc(-c3ncco3)cc2)cc1 [Ia-211] | 4.8 | 240
30 | CC(C)(C)S(=O)(=O)Nc1ccc(C(=O)Nc2ccc(-c3cccs3)cc2)cc1 [Ia-213] | 0.91 | 28
31 | CC(C)(C)S(=O)(=O)NC1CCN(C(=O)Nc2ccc(C(F)(F)F)cc2)CC1 [Ia-219] | 2.5 | 28
32 | CC(C)S(=O)(=O)NC1CCN(C(=O)Nc2ccc(C(F)(F)F)cc2)CC1 [Ia-222] | 3.7 | 18
33 | CC(C)(C)S(=O)(=O)NC1CCN(C(=O)Nc2ccc(OC3CCOCC3)cc2)CC1 [Ia-225] | 3.4 | 20
34 | CC(C)S(=O)(=O)NC1CCN(C(=O)Nc2ccc(OC3CCOCC3)cc2)CC1 [Ia-237] | 1.1 | 15
35 | CC(C)(C)S(=O)(=O)NC1CCC(C(=O)Nc2ccc(C3(O)CCOCC3)cc2)CC1 (stereo not drawn) [Ia-247] | 0.79 | 31

Stronger by IC50 (human NPY Y5 receptor [1]), values ahead:

Row | IC50 (human NPY Y5 receptor [1]) [nM] | IC50 (human NPY Y5 receptor [2]) [nM] | Compound
36 | 0.71 | 1.7 | CC(C)(C)S(=O)(=O)Nc1ccc(C(=O)Nc2ccc(-c3ccccc3)cc2)cc1 [Ia-158]
37 | 0.38 | 4.7 | CC(C)(C)S(=O)(=O)NC1CCC(C(=O)Nc2ccc(OC3CCCC3)cc2)CC1 (stereo not drawn) [Ia-164]
38 | 0.35 | 5.4 | CC(C)(C)S(=O)(=O)NC1CCC(C(=O)Nc2ccc(OCC3CC3)cc2)CC1 (stereo not drawn) [Ia-174]
39 | 0.49 | 9.2 | CC(C)(C)S(=O)(=O)NC1CCC(C(=O)Nc2ccc(OC3CCCCC3)cc2)CC1 (stereo not drawn) [Ia-175]
40 | 0.63 | 5.1 | CC(C)(C)S(=O)(=O)NC1CCC(C(=O)Nc2cccc(OC3CCCCC3)c2)CC1 (stereo not drawn) [Ia-176]
41 | 0.49 | 7.5 | CC(C)(C)S(=O)(=O)NC1CCC(C(=O)Nc2ccc(-c3ccco3)cc2)CC1 (stereo not drawn) [Ia-177]
42 | 0.24 | 2.1 | CC(C)(C)S(=O)(=O)NC1CCC(C(=O)Nc2cccc(OCC3CC3)c2)CC1 (stereo not drawn) [Ia-182]
43 | 0.34 | 1000 | CC(C)(C)S(=O)(=O)NC1CCC(C(=O)Nc2ccc(NC(=O)C3CCCCC3)cc2)CC1 (stereo not drawn) [Ia-190]
44 | 0.49 | 220 | CC(C)NC(=O)c1ccc(NC(=O)c2ccc(NS(=O)(=O)C(C)(C)C)cc2)cc1 [Ia-191]
45 | 0.22 | 8.1 | CC(C)S(=O)(=O)NC1CCC(C(=O)Nc2ccc(-c3ccco3)cc2)CC1 (stereo not drawn) [Ia-194]
46 | 0.39 | 1.3 | CC(C)S(=O)(=O)NC1CCC(C(=O)Nc2ccc(OCC3CC3)cc2)CC1 (stereo not drawn) [Ia-196]
47 | 0.44 | 2.5 | CC(C)S(=O)(=O)NC1CCC(C(=O)Nc2cccc(OCC3CC3)c2)CC1 (stereo not drawn) [Ia-197]
48 | 0.23 | 2.6 | CC(C)S(=O)(=O)NC1CCC(C(=O)Nc2ccc(OC3CCCC3)cc2)CC1 (stereo not drawn) [Ia-198]
49 | 0.37 | 3.4 | CC(C)(C)S(=O)(=O)NC1CCC(C(=O)Nc2ccc(-c3cccs3)cc2)CC1 (stereo not drawn) [Ia-202]
50 | 0.2 | 2.6 | CC(C)(C)S(=O)(=O)NC1CCC(C(=O)Nc2ccc(C3CCCCC3)cc2)CC1 (stereo not drawn) [Ia-203]
51 | 0.55 | 5.9 | CC(C)(C)S(=O)(=O)NC1CCC(C(=O)Nc2cccc(N3CCCS3(=O)=O)c2)CC1 (stereo not drawn) [Ia-207]
52 | 0.52 | 2.6 | CC(C)(C)S(=O)(=O)Nc1ccc(C(=O)Nc2ccc(OC3CCCC3)cc2)cc1 [Ia-212]
53 | 0.47 | 1.5 | CC(C)(C)S(=O)(=O)NC1CCN(C(=O)Nc2ccc(C3CCCCC3)cc2)CC1 [Ia-221]
54 | 0.1 | 1.2 | CC(C)S(=O)(=O)NC1CCN(C(=O)Nc2ccc(C3CCCCC3)cc2)CC1 [Ia-224]
55 | 0.37 | 21 | CC(C)S(=O)(=O)NCCCCC(=O)Nc1ccc2c(c1)C(=O)N(c1ccccc1)C2=O [Ia-226]
56 | 0.26 | 20 | CC(C)(C)S(=O)(=O)NC1CCC(C(=O)Nc2cccc(C3CCOCC3)c2)CC1 (stereo not drawn) [Ia-246]
57 | 0.27 | 17 | CC(C)(C)S(=O)(=O)NC1CCC(C(=O)Nc2ccc(C3CCOCC3)cc2)CC1 (stereo not drawn) [Ia-248]
